Like-named read-outs stand apart in the source and are kept apart here.
Legend:
human MLKL (full length) = human MLKL (full length) (Homo sapiens (Human), UniProt Q8NB16); experiment: KINOMEscan binding assay, human MLKL (full length)
How it was run: (§1)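 Tagged kinase + immobilized ligand beads + compound; eluted kinase quantified by qPCR. Kinase source: T7 phage lysate (BL21-derived E. coli, 32 °C) or HEK-293 with DNA tag. 11-pt 3-fold series, 1% DMSO, top 30,000 nM (most). Hill fit, slope −1 → Kd.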

mouse MLKL (full length) = mouse MLKL (full length) (Mus musculus (Mouse), UniProt Q9D2Y4); experiment: KINOMEscan binding assay, mouse MLKL (full length); details: Table 22
mouse MLKL (full length), sequence (Q9D2Y4 whole entry): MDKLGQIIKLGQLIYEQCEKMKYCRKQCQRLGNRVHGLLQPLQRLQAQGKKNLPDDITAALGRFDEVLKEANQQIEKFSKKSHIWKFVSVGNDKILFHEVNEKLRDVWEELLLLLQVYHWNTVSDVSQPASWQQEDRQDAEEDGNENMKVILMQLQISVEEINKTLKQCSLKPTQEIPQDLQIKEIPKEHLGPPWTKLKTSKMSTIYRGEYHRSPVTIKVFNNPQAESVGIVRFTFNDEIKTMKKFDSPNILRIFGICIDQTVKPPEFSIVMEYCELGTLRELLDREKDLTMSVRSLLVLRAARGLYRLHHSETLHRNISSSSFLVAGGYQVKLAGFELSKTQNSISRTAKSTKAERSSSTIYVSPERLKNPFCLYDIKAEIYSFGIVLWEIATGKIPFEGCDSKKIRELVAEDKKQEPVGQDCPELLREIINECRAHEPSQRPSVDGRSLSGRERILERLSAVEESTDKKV
Method: Binding affinity of the test compounds for human MLKL (full length), mouse MLKL (full length), human RIPK1 and human RIPK3 was determined using the KINOMEscan™ technology developed by DiscoverX (USA; http://www.discoverx.com). The assay was conducted according to manufacturer instructions.
Kinase assays. For most assays, kinase-tagged T7 phage strains were grown in parallel in 24-well blocks in an E. coli host derived from the BL21 strain. E. coli were grown to log-phase and infected with T7 phage from a frozen stock (multiplicity of infection=0.4) and incubated with shaking at 32° C. until lysis (90-150 minutes). The lysates were centrifuged (6,000×g) and filtered (0.2 μm) to remove cell debris. The remaining kinases were produced in HEK-293 cells and subsequently tagged with DNA for qPCR detection. […] The liganded beads were blocked with excess biotin and washed with blocking buffer (SeaBlock (Pierce), 1% BSA, 0.05% Tween 20, 1 mM DTT) to remove unbound ligand and to reduce non-specific phage binding. […] All reactions were performed in polypropylene 384-well plates in a final volume of 20 μL. […] The kinase concentration in the eluates was measured by qPCR.
An 11-point 3-fold serial dilution of each test compound was prepared in 100% DMSO at 100× final test concentration and subsequently diluted to 1× in the assay (final DMSO concentration=1%). Most Kos were determined using a compound top concentration=30,000 nM.
KD for each test compound was calculated with a standard dose-response curve using the Hill equation (equation (1)): […]
The Hill Slope was set to −1.
Curves were fitted using a non-linear least square fit with the Levenberg-Marquardt algorithm.

human RIPK1 = human RIPK1 (Homo sapiens (Human), UniProt Q13546); experiment: KINOMEscan binding assay, human RIPK1; details: Table 21
human RIPK1, sequence (Q13546 whole entry): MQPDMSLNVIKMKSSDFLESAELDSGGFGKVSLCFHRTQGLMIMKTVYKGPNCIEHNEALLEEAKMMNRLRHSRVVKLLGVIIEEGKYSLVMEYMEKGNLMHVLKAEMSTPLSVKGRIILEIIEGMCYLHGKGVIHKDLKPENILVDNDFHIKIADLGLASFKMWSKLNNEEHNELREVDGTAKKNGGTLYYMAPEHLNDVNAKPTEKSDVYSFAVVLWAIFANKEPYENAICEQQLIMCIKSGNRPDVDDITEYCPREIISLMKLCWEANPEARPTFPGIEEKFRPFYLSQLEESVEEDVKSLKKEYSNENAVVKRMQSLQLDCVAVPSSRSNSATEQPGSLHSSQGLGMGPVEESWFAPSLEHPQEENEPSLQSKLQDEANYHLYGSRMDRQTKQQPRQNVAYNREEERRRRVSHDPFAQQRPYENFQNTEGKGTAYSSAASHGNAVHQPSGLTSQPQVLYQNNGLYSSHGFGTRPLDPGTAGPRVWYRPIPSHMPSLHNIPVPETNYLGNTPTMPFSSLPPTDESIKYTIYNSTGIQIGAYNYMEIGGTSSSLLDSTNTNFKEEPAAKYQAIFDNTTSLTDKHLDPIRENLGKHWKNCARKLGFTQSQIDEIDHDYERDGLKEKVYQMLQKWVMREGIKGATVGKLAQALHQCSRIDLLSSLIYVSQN
How it was run: as §1

human RIPK3 = human RIPK3 (Homo sapiens (Human), UniProt Q9Y572); experiment: KINOMEscan binding assay, human RIPK3; details: Table 21
human RIPK3, sequence (Q9Y572 whole entry): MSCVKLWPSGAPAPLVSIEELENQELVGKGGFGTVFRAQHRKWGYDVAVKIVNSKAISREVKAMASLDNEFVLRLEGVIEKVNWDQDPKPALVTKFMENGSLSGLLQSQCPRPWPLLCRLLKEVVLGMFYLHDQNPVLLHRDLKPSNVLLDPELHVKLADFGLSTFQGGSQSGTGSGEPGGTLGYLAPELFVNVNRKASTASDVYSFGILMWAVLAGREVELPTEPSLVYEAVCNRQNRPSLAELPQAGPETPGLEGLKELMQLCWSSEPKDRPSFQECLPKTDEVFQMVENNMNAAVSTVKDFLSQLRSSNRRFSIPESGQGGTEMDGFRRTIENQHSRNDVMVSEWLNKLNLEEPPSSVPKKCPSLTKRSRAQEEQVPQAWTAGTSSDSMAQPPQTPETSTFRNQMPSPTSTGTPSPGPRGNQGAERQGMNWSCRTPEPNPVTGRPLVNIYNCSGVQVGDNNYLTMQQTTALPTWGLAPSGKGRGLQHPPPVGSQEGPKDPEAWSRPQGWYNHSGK
How it was run: as §1

[1] = tested on: Immortalised Mouse Dermal Fibroblasts (MDFs); experiment: Cellular assay: inhibition of TSI induced necroptosis, CellTitre-Glo viability; details: Mus musculus, Fibroblast; MDF, 3 hours TSI cocktail, Table 24; read-out: Inhibition of TSI-induced necroptosis (IC50 cell-based assay) in MDF
How it was run: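 Immortalised mouse dermal fibroblasts (2200 cells/well) pretreated 30 min with compound, 10-point 1:3 series from 36 μM, 0.3% DMSO. Then 3 h at 37° C. with TNF (100 ng/ml), Smac mimetic (500 nM) and IDN-6556 (10 μM). CellTiter-Glo luminescence normalised to DMSO (100%) and DMSO+TSI (0%); IC50 from 4-parameter logistic fit.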

[2] = tested on: U937 human histiocytic leukemia cell line; experiment: Cellular assay: inhibition of TSQ induced necroptosis, CellTitre-Glo viability; details: Homo sapiens, U-937; U937 cells, 48 hours, TSQ cocktail, Table 26; read-out: Inhibition of TSQ-induced necroptosis (IC50 cell-based assay)
How it was run: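 U937 cells (20,000/well) treated with compound (10-point, 36 μM top, 1:3) plus TSQ cocktail (hTNF-Fc 100 ng/ml, Smac mimetic 500 nM, Q-VD-OPh 10 μM), 48 h at 37° C., 0.3% DMSO. Viability by CellTitre-Glo ATP luminescence; counter screen without TSQ measured compound-only effects on viability.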

U937 cells = experiment: Counter screen: cell viability without the TSQ cocktail (off-target effect); set-up: species or system human; details: Homo sapiens, U-937, Table 26, read-out: Off-target effect (IC50 cell-based assay)
How it was run: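 U937 cells (20000/well, HT-RPMI + 7.4% FBS) treated with compound (10-point 1:3 dilution from 36 μM, 0.3% DMSO) without the TSQ cocktail for 48 h at 37 °C/5% CO2. Viability read as ATP by CellTiter-Glo luminescence, flagging off-target cytotoxicity.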

endogenous MLKL in U937 = endogenous MLKL in U937 (Homo sapiens (Human), UniProt Q8NB16); experiment: Degradation assay: endogenous MLKL in U937 (western blot); details: U937, 24 h incubation, read-out: Degradation of endogenous MLKL in U937 (DC50 cell-based assay)
endogenous MLKL in U937, sequence (Q8NB16 whole entry): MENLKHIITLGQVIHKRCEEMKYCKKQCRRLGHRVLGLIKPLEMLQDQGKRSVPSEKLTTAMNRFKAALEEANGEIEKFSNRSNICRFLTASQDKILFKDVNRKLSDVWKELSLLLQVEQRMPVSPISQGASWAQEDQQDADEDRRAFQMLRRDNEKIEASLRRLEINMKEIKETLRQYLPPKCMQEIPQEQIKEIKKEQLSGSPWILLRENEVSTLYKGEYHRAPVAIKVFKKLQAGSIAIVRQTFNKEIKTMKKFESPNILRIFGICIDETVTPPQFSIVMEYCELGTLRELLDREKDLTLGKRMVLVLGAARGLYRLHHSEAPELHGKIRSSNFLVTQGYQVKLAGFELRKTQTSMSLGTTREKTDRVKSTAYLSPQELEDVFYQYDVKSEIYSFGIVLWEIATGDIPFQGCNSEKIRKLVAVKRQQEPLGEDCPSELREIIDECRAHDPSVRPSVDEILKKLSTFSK
How it was run: (§2)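 MDF (seeded the day before) or U937 cells were treated 24 h at 37 °C, 10% CO2 with compound at 10, 2, 0.4, 0.08 and 0.016 μM final. Endogenous MLKL was quantified by western blot (anti-MLKL 3H1), normalized to GAPDH. Percent degradation was taken relative to DMSO control.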

endogenous MLKL in MDF = endogenous MLKL in MDF (Mus musculus (Mouse), UniProt Q9D2Y4); experiment: Degradation assay: endogenous MLKL in MDF (western blot); details: MDF cells, 24 h incubation with compound, MLKL adjusted for loading with GAPDH, normalized to DMSO only control, read-out: Degradation of endogenous MLKL in MDF (DC50 cell-based assay)
endogenous MLKL in MDF, sequence (Q9D2Y4 whole entry): as the sequence (Q9D2Y4 whole entry) above
How it was run: as §2

[3] = KINOMEscan, Table 21, read-out: Human MLKL (full-length) (KD)
[4] = hMLKL, Table 25, read-out: MLKL (KD)

human MLKL (full length), sequence (Q8NB16 whole entry): as the sequence (Q8NB16 whole entry) above

Row | Kd (human MLKL (full length); [3]) | Kd (mouse MLKL (full length)) | Kd (human RIPK1) | Kd (human RIPK3) | Kd (human MLKL (full length); [4]) | DC50 (endogenous MLKL in U937) | DC50 (endogenous MLKL in MDF) | Compound | IC50 [1] | IC50 [2] | IC50 (U937 cells)
1 | < 1 nM | < 1 nM |  |  |  |  |  | Nc1ncc(-c2cnn(C3CCOCC3)c2)c2occ(-c3ccc(NS(=O)(=O)C(F)F)c(OCc4ccc(F)cc4)c3)c12 [Compound 5, N-(4-(4-amino-7-(1-(tetrahydro-2H-pyran-4-yl)-1H-pyrazol-4-yl)furo[3,2-c]pyridin-3-yl)-2-((4-fluorobenzyl)oxy)phenyl)-1,1-difluoro-methanesulfonamide] |  |  | 
2 |  | < 1 nM | > 10000 nM | > 10000 nM |  |  |  | C[C@H](Oc1cc(-c2coc3c(-c4cnn(C5CCOCC5)c4)cnc(N)c23)ccc1NS(=O)(=O)C(F)F)c1ccc(F)cc1 [Compound 7, (S)-N-(4-(4-amino-7-(1-(tetrahydro-2H-pyran-4-yl)-1H-pyrazol-4-yl)furo[3,2-c]pyridin-3-yl)-2-(1-(4-fluoro-phenyl)eth-oxy)phenyl)-1,1-difluoro-methanesulfonamide] |  |  | 
3 | < 1 nM | < 1 nM | > 10000 nM | > 10000 nM |  |  |  | C[C@H](Oc1cc(-c2coc3c(-c4cnn(C)c4)cnc(N)c23)ccc1NS(=O)(=O)C(F)F)c1ccc(F)cc1 [Compound 8, (S)-N-(4-(4-amino-7-(1-methyl-1H-pyrazol-4-yl)furo[3,2-c]pyridin-3-yl)-2-(1-(4-fluorophenyl)eth-oxy)phenyl)-1,1-difluoromethane-sulfonamide] |  |  | 
4 | < 1 nM | < 1 nM | > 10000 nM | > 10000 nM |  |  |  | Cn1nc(-c2ccc(NS(=O)(=O)C(F)F)c(OCc3ccc(F)cc3)c2)c2c(N)ncc(-c3cnn(C4CCOCC4)c3)c21 [Compound 13, N-(4-(4-amino-1-methyl-7-(1-(tetrahydro-2H-pyran-4-yl)-1H-pyrazol-4-yl)-1H-pyrazolo[4,3-c]pyridin-3-yl)-2-((4-fluoro-benzyl)oxy)phenyl)-1,1-difluoromethane-sulfonamide] |  |  | 
5 | < 1 nM | < 1 nM | > 10000 nM | > 10000 nM |  |  |  | C[C@H](Oc1cc(-c2nn(C)c3c(-c4cnn(CCO)c4)cnc(N)c23)ccc1NS(=O)(=O)C(F)F)c1ccc(F)cc1 [Compound 15, (S)-N-(4-(4-amino-7-(1-(2-hydroxyethyl)-1H-pyrazol-4-yl)-1-methyl-1H-pyrazolo[4,3-c]pyridin-3-yl)-2-(1-(4-fluorophenyl)ethoxy)phenyl)-1,1-difluoromethanesulfonamide] |  |  | 
6 | < 1 nM | < 1 nM |  |  |  |  |  | C[C@H](Oc1cc(-c2nn(C)c3c(-c4cnn(C5CCOCC5)c4)cnc(N)c23)ccc1NS(=O)(=O)C(F)F)c1ccc(F)cc1 [Compound 19] | < 1000 nM |  | 
7 | < 1 nM | < 1 nM | > 10000 nM | > 10000 nM |  |  |  | C[C@H](Oc1cc(-c2nn(C)c3c(-c4cnn(C)c4)cnc(N)c23)ccc1NS(=O)(=O)C(F)F)c1ccc(F)cc1 [Compound 20, (S)-N-(4-(4-amino-1-methyl-7-(1-methyl-1H-pyrazol-4-yl)-1H-pyrazolo[4,3-c]pyridin-3-yl)-2-(1-(4-fluorophenyl)ethoxy)phenyl)-1,1-difluoromethanesulfonamide] |  |  | 
8 |  | < 1 nM | > 10000 nM | > 10000 nM |  |  |  | C[C@H](Oc1cc(-c2nn(C)c3c(-c4cnn(CCN5CCN(C)CC5)c4)cnc(N)c23)ccc1NS(=O)(=O)C(F)F)c1ccc(F)cc1 [Compound 60, (S)-N-(4-(4-amino-1-methyl-7-(1-(2-(4-metyhlpiperazin-1-yl)ethyl)-1H-pyrazol-4-yl)-1H-pyrazolo[4,3-c]pyridin-3-yl)-2-(1-(4-fluorophenyl)ethoxy)phenyl)-1,1-difluoromethanesulfonamide] |  |  | 
9 |  |  |  |  | < 10 nM | 1000 to 10000 nM |  | Cc1ncsc1-c1ccc(CNC(=O)[C@@H]2C[C@@H](O)CN2C(=O)[C@@H](NC(=O)CCN2CCC(n3cc(-c4cnc(N)c5c(-c6ccc(NS(=O)(=O)C(F)F)c(O[C@@H](C)c7ccc(F)cc7)c6)nn(C)c45)cn3)CC2)C(C)(C)C)cc1 [Compound 1017, (2S,4R)-1-[(2S)-2-{3-[4-(4-{4-amino-3-[4-(difluoromethanesulfonamido)-3-[(1S)-1-(4-fluorophenyl)ethoxy]phenyl]-1-methyl-1H-pyrazolo[4,3-c]pyridin-7-yl}-1H-pyrazol-1-yl)piperidin-1-yl]propanamido}-3,3-dimethylbutanoyl]-4-hydroxy-N-{[4-(4-methyl-1,3-thiazol-5-yl)phenyl]methyl}pyrrolidine-2-carboxamide] |  | 1000 to 10000 nM | > 10000 nM
10 |  |  |  |  | < 10 nM | < 1000 nM | < 1000 nM | Cc1ncsc1-c1ccc(CNC(=O)[C@@H]2C[C@@H](O)CN2C(=O)[C@@H](NC(=O)CCCCCCn2cc(-c3cnc(N)c4c(-c5ccc(NS(=O)(=O)C(F)F)cc5)nn(C)c34)cn2)C(C)(C)C)cc1 [Compound 1022, (2S,4R)-1-[(2S)-2-[7-(4-{4-amino-3-[4-(difluoromethanesulfonamido)phenyl]-1-methyl-1H-pyrazolo[4,3-c]pyridin-7-yl}-1H-pyrazol-1-yl)heptanamido]-3,3-dimethylbutanoyl]-4-hydroxy-N-{[4-(4-methyl-1,3-thiazol-5-yl)phenyl]methyl}pyrrolidine-2-carboxamide] |  | < 1000 nM | > 10000 nM

— patent US20250115598A1 (Anaxis Pharma Pty Ltd, priority 2021, published 2025)
